Data taken from patent US12446574B2, “Adjuvants for agrochemical formulations” (SYNGENTA CROP PROTECTION AG, priority 2016, dated 2025).

Assay: Storage stability of aqueous adjuvant formulations: clear isotropic single-phase solution after 24 hours at the temperature of interest
Type: physicochemical
Design: key: Pass: Samples which were found to be clear isotropic solutions after 24 hours were classified as a pass; Fail: all other results were classed as a fail
Text: For the purposes of the present invention we define a stable formulation of adjuvant in water as one where the mixture forms a homogeneous or single phase liquid. The liquid may be a micellar solution however it will appear isotropic to the naked eye. […] This stability allows the design of products with shelf lives potentially running to several years. […]

COCc1cnc(C2=NC(C)(C(C)C)C(=O)N2)c(C(=O)O)c1 (stereo not drawn) [Imazamox, imazamox]
Result (20 °C, Plurafac=0, water=40.5, imazamox=4.5, Tween 20=50, PG=5 % w/w): Pass
Result (20 °C, Plurafac=0, water=45, imazamox=5, Tween 20=50 % w/w): Pass
Result (20 °C, Plurafac=0, water=64.8, imazamox=7.2, Tween 20=20, PG=8 % w/w): Pass
Result (20 °C, Plurafac=0, water=72, imazamox=8, Tween 20=20 % w/w): Pass
Result (20 °C, Plurafac=0, water=72.9, imazamox=8.1, Tween 20=10, PG=9 % w/w): Pass
Result (20 °C, Plurafac=0, water=81, imazamox=9, Tween 20=10 % w/w): Pass
Result (50 °C, Plurafac=0, water=40.5, imazamox=4.5, Tween 20=50, PG=5 % w/w): Pass
Result (50 °C, Plurafac=0, water=45, imazamox=5, Tween 20=50 % w/w): Pass
Result (50 °C, Plurafac=0, water=64.8, imazamox=7.2, Tween 20=20, PG=8 % w/w): Pass
Result (50 °C, Plurafac=0, water=72, imazamox=8, Tween 20=20 % w/w): Pass
Result (50 °C, Plurafac=0, water=72.9, imazamox=8.1, Tween 20=10, PG=9 % w/w): Pass
Result (50 °C, Plurafac=0, water=81, imazamox=9, Tween 20=10 % w/w): Pass
Result (-5 °C, Plurafac=0, water=40.5, imazamox=4.5, Tween 20=50, PG=5 % w/w): Fail
Result (-5 °C, Plurafac=0, water=45, imazamox=5, Tween 20=50 % w/w): Fail
Result (-5 °C, Plurafac=0, water=64.8, imazamox=7.2, Tween 20=20, PG=8 % w/w): Pass
Result (-5 °C, Plurafac=0, water=72, imazamox=8, Tween 20=20 % w/w): Pass
Result (-5 °C, Plurafac=0, water=72.9, imazamox=8.1, Tween 20=10, PG=9 % w/w): Pass
Result (-5 °C, Plurafac=0, water=81, imazamox=9, Tween 20=10 % w/w): Pass
Result (-10 °C, Plurafac=0, water=40.5, imazamox=4.5, Tween 20=50, PG=5 % w/w): Fail
Result (-10 °C, Plurafac=0, water=45, imazamox=5, Tween 20=50 % w/w): Fail
Result (-10 °C, Plurafac=0, water=64.8, imazamox=7.2, Tween 20=20, PG=8 % w/w): Pass
Result (-10 °C, Plurafac=0, water=72, imazamox=8, Tween 20=20 % w/w): Pass
Result (-10 °C, Plurafac=0, water=72.9, imazamox=8.1, Tween 20=10, PG=9 % w/w): Pass
Result (-10 °C, Plurafac=0, water=81, imazamox=9, Tween 20=10 % w/w): Pass
